Measured values published in US6887847B2, “Virus derived antimicrobial peptides” (University of Pittsburgh, priority 2001, dated 2005).
Converted amounts (≈) assume the structure as drawn. Read-outs that look alike come from different tables or passages of the source. Residues, ends and D or L forms follow the SMILES beside them. No end group written: not given here.

Assays:
[1] = tested on: Staphylococcus aureus; test: Bacterial lysis (broth dilution) assay, MBC; type: cell-based
Excerpt: (§1) The assays for growth inhibition of a microbial target can be used to derive a minimum bactericidal concentration (MBC) value for the peptide, i.e., the concentration of peptide required to kill 99.9% of the microbial sample being tested. This value is well known to those in the art as representative of the effectiveness of a particular antimicrobial agent (e.g., an antibiotic) against a particular organism or group of organisms. In assays to detect the MBC of a peptide, growth inhibition of a bacterial population also can be measured with reference to the number of colony forming units (cfu) after exposure to a peptide relative to a control experiment without a peptide.
(§2) Bacterial lysis assay. Bacterial lysis assays were conducted in a manner similar to that described previously (Lehrer, R. I., M. E. Selsted, D. Szklarek, and F. J. 1983. Infect. Immun. 42: 10-4, 1983; Miller, M. A., R. F. Garry, J. M. Jaynes, and R. C. Montelaro, AIDS Res Hum Retroviruses 7: 511-519, 1991). Bacterial suspensions were cultured in Luria-Bertani Broth to mid-log growth phase and washed by two cycles of centrifugation and suspension in 10 mM phosphate buffer. The Abs600 of the suspension was adjusted with 10 mM phosphate buffer such that, upon dilution, 5-10×10^5 cfu/mL would be treated in the assay. Bacteria were incubated for 1 h with two-fold dilutions of peptides (100 μM to 100 nM) in 96-well plates using 10 mM phosphate buffer, pH 7.2, as a diluent. Ten-fold dilutions of bacteria were performed to 1:1000; a 100 μl aliquot from each condition was spread on the surface of tryptic soy agar plates (Difco, Detroit, Mich.) which were incubated overnight. Colonies of surviving bacteria (cfu, colony-forming units) were counted and compared to untreated controls to determine the amount of peptide-induced killing under each condition. Log killing is defined as the log of the ratio of cfu present before and after treatment with peptide. The minimal bactericidal concentration, MBC, is the peptide concentration at which 99.9% (three log) killing is achieved (Pearson et al., Antimicrob. Agents Chemother. 18: 699-708, 1980).
(§3) A limitation of many host-derived antimicrobial peptides is their decreased activity at physiologic (150 mM) NaCl concentration. See Friedrich et al., Antimicrobial Agents and Chemotherapy 43:1542-1548. The peptides WLSA-5 (SEQ ID NO:3) and LL37 were tested against the two index strains at physiologic NaCl. […] The activity of eLLPs and LBUs of this invention were compared to an expanded list of clinical bacterial isolates. These are summarized in Table 2 by comparing their MBCs in phosphate buffer alone (low salt) and phosphate buffer containing 150 mM NaCl (physiologic conditions). Inspection of this table would lead one skilled in the art to conclude that the activity of eLLPs and LBUs compare favorably to the host derived antimicrobial peptides as it relates to the spectrum and potency of antimicrobial activity.

[2] = tested on: Pseudomonas aeruginosa; type: cell-based
Excerpt: as §1, §2, §3

[3] = tested on: Methicillin Resistant S. aureus; type: cell-based, Staphylococcus aureus; settings: 0 mM NaCl (phosphate buffer, low salt)
Excerpt: as §1
Bacterial lysis assay. Bacterial lysis assays were conducted in a manner similar to that described previously (Lehrer, R. I., M. E. Selsted, D. Szklarek, and F. J. 1983. Infect. Immun. 42: 10-4, 1983; Miller, M. A., R. F. Garry, J. M. Jaynes, and R. C. Montelaro, AIDS Res Hum Retroviruses 7: 511-519, 1991). Bacterial suspensions were cultured in Luria-Bertani Broth to mid-log growth phase and washed by two cycles of centrifugation and suspension in 10 mM phosphate buffer. […] Colonies of surviving bacteria (cfu, colony-forming units) were counted and compared to untreated controls to determine the amount of peptide-induced killing under each condition. […]

[4] = tested on: differentiated primary human airway epithelial cells; test: Cystic fibrosis cell culture model: transepithelial resistance; type: cell-based; settings: compared with LL-37
Protocol: Preparation of eukaryotic cells. Differentiated primary cell cultures of human bronchial epithelial (HBE) cells (CF and non-CF) on an air-liquid interface were prepared in antibiotic free media. See Zabner, J. et al., 1996, J Virol. 70:6994-7003. These filters were incubated with P. aeruginosa followed by washing to remove non-adherent bacteria. Individual filters were next exposed to peptide at increasing concentrations. In order to release viable bacteria, trypsin/EDTA was added and these preparations were plated on standard bacteriologic media to quantify bacterial survival. Similarly prepared cells were monitored for peptide toxicity by measuring transepithelial resistance. The advantage of this model is that it can measure the selective toxicity of peptide for bacterium versus host cells under identical conditions.
Based on above in vitro findings, WLSA-5 (SEQ ID NO:3) was tested in a scenario that more accurately assessed its selective toxicity. For this assay, a cell culture model of bacterial adherence was established that utilized differentiated primary human airway epithelial cells. […] The ability of peptide to kill bacteria is monitored as a function of viable bacteria associated with the epithelial cells after peptide exposure. […]

[5] = 0 mM NaCl (phosphate buffer, low salt)

Molecule | MBC [1, 5] | MBC ([1]; 150 mM NaCl (physiologic)) | MBC ([2]; 150 mM NaCl (physiologic)) | further results
CC(C)[C@H](NC(=O)[C@H](CCCNC(=N)N)NC(=O)[C@H](CCCNC(=N)N)NC(=O)[C@@H](NC(=O)[C@@H](NC(=O)[C@H](CCCNC(=N)N)NC(=O)[C@@H](N)CCCNC(=N)N)C(C)C)C(C)C)C(=O)N[C@@H](CCCNC(=N)N)C(=O)N[C@@H](CCCNC(=N)N)C(=O)N[C@H](C(=O)N[C@H](C(=O)N[C@@H](CCCNC(=N)N)C(=O)N[C@@H](CCCNC(=N)N)C(=O)N[C@H](C(=O)N[C@H](C(=O)N[C@@H](CCCNC(=N)N)C(=O)N[C@H](C(=O)N[C@H](C(=O)N[C@@H](CCCNC(=N)N)C(=O)N[C@@H](CCCNC(=N)N)C(=O)N[C@H](C(=O)N[C@H](C(=O)N[C@@H](CCCNC(=N)N)C(=O)N[C@@H](CCCNC(=N)N)C(=O)O)C(C)C)C(C)C)C(C)C)C(C)C)C(C)C)C(C)C)C(C)C)C(C)C [LBU-2] (H-RRVVRRVRRVVRRVVRVVRRVVRR-OH) | 1500 nM | – | – | –
CC(C)[C@H](N)C(=O)N[C@@H](CCCNC(=N)N)C(=O)N[C@@H](CCCNC(=N)N)C(=O)N[C@H](C(=O)N[C@H](C(=O)N[C@@H](CCCNC(=N)N)C(=O)N[C@@H](CCCNC(=N)N)C(=O)N[C@H](C(=O)N[C@H](C(=O)N[C@@H](CCCNC(=N)N)C(=O)N[C@H](C(=O)N[C@H](C(=O)N[C@@H](CCCNC(=N)N)C(=O)N[C@@H](CCCNC(=N)N)C(=O)N[C@H](C(=O)N[C@H](C(=O)N[C@@H](CCCNC(=N)N)C(=O)N[C@@H](CCCNC(=N)N)C(=O)N[C@H](C(=O)N[C@@H](CCCNC(=N)N)C(=O)N[C@@H](CCCNC(=N)N)C(=O)N[C@H](C(=O)N[C@H](C(=O)N[C@@H](CCCNC(=N)N)C(=O)N[C@@H](CCCNC(=N)N)C(=O)N[C@H](C(=O)N[C@H](C(=O)N[C@@H](CCCNC(=N)N)C(=O)N[C@H](C(=O)N[C@H](C(=O)N[C@@H](CCCNC(=N)N)C(=O)N[C@@H](CCCNC(=N)N)C(=O)N[C@H](C(=O)N[C@H](C(=O)N[C@@H](CCCNC(=N)N)C(=O)N[C@@H](CCCNC(=N)N)C(=O)O)C(C)C)C(C)C)C(C)C)C(C)C)C(C)C)C(C)C)C(C)C)C(C)C)C(C)C)C(C)C)C(C)C)C(C)C)C(C)C)C(C)C)C(C)C)C(C)C)C(C)C [LBU-3] (H-VRRVVRRVVRVVRRVVRRVRRVVRRVVRVVRRVVRR-OH; N-terminus and C-terminus assumed) | 1500 nM | 1500 nM (≈ 6.92 µg/mL) | – | –
CC[C@H](C)[C@H](NC(=O)[C@H](C)NC(=O)[C@H](CCCNC(=N)N)NC(=O)[C@H](CS)NC(=O)[C@H](C)NC(=O)[C@H](CCCNC(=N)N)NC(=O)[C@H](CCC(N)=O)NC(=O)[C@@H](NC(=O)[C@@H](NC(=O)[C@H](CCCNC(=N)N)NC(=O)[C@@H](NC(=O)[C@@H](NC(=O)[C@@H](N)CCCNC(=N)N)C(C)C)[C@@H](C)CC)C(C)C)C(C)C)C(=O)N[C@@H](CCCNC(=N)N)C(=O)N[C@@H](Cc1c[nH]cn1)C(=O)N[C@H](C(=O)N[C@H](C(=O)N[C@@H](CCCNC(=N)N)C(=O)N[C@@H](CCCNC(=N)N)C(=O)N[C@H](C(=O)N[C@@H](CCCNC(=N)N)C(=O)N[C@@H](CCC(N)=O)C(=O)NCC(=O)N[C@@H](CC(C)C)C(=O)N[C@@H](CCCNC(=N)N)C(=O)N[C@@H](CCCNC(=N)N)C(=O)N[C@H](C(=O)N[C@@H](CC(C)C)C(=O)O)[C@@H](C)CC)[C@@H](C)CC)C(C)C)[C@@H](C)CC [SA-5] (H-RVIRVVQRACRAIRHIVRRIRQGLRRIL-OH; N-terminus and C-terminus assumed) | 1000 nM | – | 1 µM (≈ 3.46 µg/mL) | MBC [2, 5]: 1 µM
CC(C)[C@H](NC(=O)[C@H](Cc1c[nH]c2ccccc12)NC(=O)[C@H](CCCNC(=N)N)NC(=O)[C@H](CCCNC(=N)N)NC(=O)[C@@H](NC(=O)[C@@H](NC(=O)[C@H](CCCNC(=N)N)NC(=O)[C@@H](NC(=O)[C@@H](NC(=O)[C@@H](N)CCCNC(=N)N)C(C)C)C(C)C)C(C)C)C(C)C)C(=O)N[C@@H](CCCNC(=N)N)C(=O)N[C@@H](CCCNC(=N)N)C(=O)O [WLBU-1] (H-RVVRVVRRWVRR-OH; N-terminus and C-terminus assumed) | 30,000 nanomolar | 10,000 nanomolar | – | –
CC[C@H](C)[C@H](NC(=O)[C@H](C)NC(=O)[C@H](CCCNC(=N)N)NC(=O)[C@H](CS)NC(=O)[C@H](Cc1c[nH]c2ccccc12)NC(=O)[C@H](CCCNC(=N)N)NC(=O)[C@H](CCC(N)=O)NC(=O)[C@@H](NC(=O)[C@@H](NC(=O)[C@H](CCCNC(=N)N)NC(=O)[C@@H](NC(=O)[C@H](Cc1c[nH]c2ccccc12)NC(=O)[C@@H](N)CCCNC(=N)N)[C@@H](C)CC)C(C)C)C(C)C)C(=O)N[C@@H](CCCNC(=N)N)C(=O)N[C@@H](Cc1c[nH]cn1)C(=O)N[C@H](C(=O)N[C@@H](Cc1c[nH]c2ccccc12)C(=O)N[C@@H](CCCNC(=N)N)C(=O)N[C@@H](CCCNC(=N)N)C(=O)N[C@H](C(=O)N[C@@H](CCCNC(=N)N)C(=O)N[C@@H](CCC(N)=O)C(=O)NCC(=O)N[C@@H](CC(C)C)C(=O)N[C@@H](CCCNC(=N)N)C(=O)N[C@@H](CCCNC(=N)N)C(=O)N[C@@H](Cc1c[nH]c2ccccc12)C(=O)N[C@@H](CC(C)C)C(=O)N[C@@H](CCCNC(=N)N)C(=O)N[C@H](C(=O)N[C@H](C(=O)O)C(C)C)C(C)C)[C@@H](C)CC)[C@@H](C)CC [WLSA-5] (H-RWIRVVQRWCRAIRHIWRRIRQGLRRWLRVV-OH) | 1000 nM | 1000 nM (≈ 4.18 µg/mL) | 1 µM (≈ 4.18 µg/mL) | MBC [2, 5]: 1 µM; MBC [3]: 0.15 µM; effect on transepithelial resistance [4]: transient and not significantly different from LL-37
LL37: human cathelicidin, processed form a 37-amino acid amphiphilic α-helical cationic host derived antimicrobial peptide (LLGDFFRKSKEKIGKEFKRIVQRIKDFLRNLVPRTES; Antibacterial peptide LL-37; UniProt P49913 134-170, looked up) [reference compound] | – | – | – | P. aeruginosa killing, influence of NaCl ([2]; low salt vs physiologic (150 mM) NaCl): not affected by NaCl inclusion
RRVVRRVRRVVRRVVRVVRRVVRRVRRVVRRVVRVVRRVVRR [LBU-3.5] | – | – | 0.4 µM | –
RVVRVVRRVVRRVRRVVRRVVRVVRRVVRRVRRVVRRVVRVVRRVVRR [LBU-4] | 800 nM | 800 nM | – | –
